Source: patent US7365221B2, “Monoacylated betulin and dihydrobetulin derivatives, preparation thereof and use thereof” (priority 2002, dated 2008)
Read-outs that look alike come from different tables or passages of the source.

Key:
[1] = tested on: HIV-1 (IIIB isolate); assay type: cell-based; settings: average of at least two experiments; cell line not stated; read-out: Anti-HIV Activity EC50
Protocol: (§1) The biological evaluation of HIV-1 inhibition was carried out as follows according to established protocols (Montefiori et al., Clin Microbiol. 26:231-235 (1988)). The human T-cell line, MT-2, was maintained in continuous culture with complete medium (RPMI 1640 with 10% fetal calf serum supplemented with L-glutamine at 5% CO2 and 37° C.). Test samples were first dissolved in dimethyl sulfoxide at a concentration of 10 mg/ml to generate master stocks with dilutions made into tissue culture media to generate working stocks. The following drug concentrations were routinely used for screening: 100, 20, 4 and 0.8 μg/ml. For agents found to be active, additional dilutions were prepared for subsequent testing so that an accurate EC50 value (defined below) could be determined. Test samples were prepared and to each sample well was added 90 μl of media containing MT-2 cells at 3×10^5 cells/ml and 45 μl of virus inoculum (HIV-1 IIIIB isolate) at a concentration necessary to result in 80% killing of the cell targets at 5 days post-infection (PI). Control wells containing virus and cells only (no drug) and cells only (no virus or drug) were also prepared. A second set of samples were prepared identical to the first and were added to cells under identical conditions without virus (mock infection) for toxicity determinations (IC50 defined below). In addition, AZT was also assayed during each experiment as a positive drug control. On day 5 PI, virus-induced cell killing was determined by measuring cell viability using the XTT method. Compound toxicity was determined by XTT using the mock-infected samples. If a test sample had suppressive capability and was not toxic, its effects were reported in the following terms: IC50, the concentration of test sample which was toxic to 50% of the mock-infected MT-2 cells; EC50, the concentration of the test sample that was able to suppress HIV replication by 50%; and the Therapeutic index (TI) the ratio of the IC50 to EC50.
(§2) Compounds of the present invention were assayed for anti-HIV activity according to the following assay procedures. The T cell line, H9, and the promonocytic cell line, U937, were maintained separately in continuous culture with complete medium (RPMI 1640 with 10% fetal calf serum) at 5% CO2 and 37° C. The cell lines were used in experiments only when in the logarithmic phase of growth, whereas uninfected peripheral blood mononuclear cells (PBMCs) were first stimulated with PHA (1 μg/mL) for three days. All cell targets were incubated with HIV-1 (IIIB isolate, 1×10^6 TCID50/mL) for one hour at 37° C. and 5% CO2. The cell lines and PBMCs were washed thoroughly to remove unadsorbed virions and resuspended at 4×10^5 cells/mL in complete medium or complete medium with 10% v/v interleukin 2 (IL-2), respectively. 100 μL aliquots were placed into wells of 96-well tissue culture plates containing an equal volume of test compounds (diluted in the appropriate culture medium). The toxicity of each compound was assessed by determining the number of compound-exposed uninfected cells that remained after five days at 37° C. and 5% CO2. A p24 antigen ELISA assay was used to determine the level of virus released in the medium of the HIV-infected cultures. […] The cutoff for the p24 ELISA assay was 12.5 pg/mL. p24 in the culture medium was quantitated against a standard curve containing known amounts of p24. The effective (EC50) and inhibitory (IC50) concentrations for anti-HIV activity and cytotoxicity, respectively, were determined.

[2] = tested on: uninfected cells; experiment: Cytotoxicity on compound-exposed uninfected cells
Protocol: as §1, §2

[3] = tested on: HIV-1 replication in H9 lymphocyte cells; settings: Fujioka et al. 1994, cited from earlier work
[4] = read-out: Cytotoxicity IC50, average of at least two experiments, uninfected cells
[5] = H9 lymphocyte cells, read-out: EC50, inhibitory activity against HIV-1 replication

| Compound | EC50 [1] | IC50 [2] | also measured |
| --- | --- | --- | --- |
| C=C(C)[C@@H]1CC[C@]2(CO)CC[C@]3(C)[C@H](CC[C@@H]4[C@@]5(C)CC[C@H](OC(=O)CCCC(=O)O)C(C)(C)[C@@H]5CC[C@]43C)[C@@H]12 [Compound 10, 3-O-glutaryl betulin] | 66.2 nM | – | IC50 [2, 4]: 44.4 µM |
| C=C(C)[C@@H]1CC[C@]2(CO)CC[C@]3(C)[C@H](CC[C@@H]4[C@@]5(C)CC[C@H](OC(=O)COCC(=O)O)C(C)(C)[C@@H]5CC[C@]43C)[C@@H]12 [Compound 12] | 24.6 nM | > 44.8 µM | – |
| CC(=O)[C@@H]1CC[C@]2(C(=O)O)CC[C@]3(C)[C@H](CC[C@@H]4[C@@]5(C)CC[C@H](O)C(C)(C)[C@@H]5CC[C@]43C)[C@@H]12 [platanic acid] | – | – | EC50 [3, 5]: 6500 nM |
| C=C(C)[C@@H]1CC[C@]2(CO)CC[C@]3(C)[C@H](CC[C@@H]4[C@@]5(C)CC[C@H](OC(=O)CC(C)(C)CC(=O)O)C(C)(C)[C@@H]5CC[C@]43C)[C@@H]12 [Compound 8] | 4.4 nM | 28.9 µM | – |
| CC(C)[C@@H]1CC[C@]2(C(=O)O)CC[C@]3(C)C(CCC4[C@@]5(C)CC[C@H](O)C(C)(C)C5CC[C@]43C)C12 (stereo partly shown) [dihydrobetulinic acid] | – | – | EC50 ([3]; unit inferred, read-out: EC50, anti-HIV activity): 900 nM |
| C=C(C)[C@@H]1CC[C@]2(CO)CC[C@]3(C)[C@H](CC[C@@H]4[C@@]5(C)CC[C@H](OC(=O)CCCC(=O)OCC)C(C)(C)[C@@H]5CC[C@]43C)[C@@H]12 [Compound 18, 3-O-glutaryl betulin ethyl ester] | 16.9 nM | – | IC50 [2, 4]: 36.4 µM |
| C=C(C)[C@@H]1CC[C@]2(CO)CC[C@]3(C)[C@H](CC[C@@H]4[C@@]5(C)CC[C@H](OC(=O)CC(C)(C)C(=O)O)C(C)(C)[C@@H]5CC[C@]43C)[C@@H]12 [Compound 6] | 5.6 nM | 33.5 µM | – |
| C=C(C)[C@@H]1CC[C@]2(C(=O)O)CC[C@]3(C)[C@H](CC[C@@H]4[C@@]5(C)CC[C@H](O)C(C)(C)[C@@H]5CC[C@]43C)[C@@H]12 [Betulinic acid, betulinic acid] | – | – | EC50 [3, 5]: 1400 nM |
